Results reported in patent publication US7803930B2, “Antisense modulation of apolipoprotein B-expression” (Isis Pharmaceuticals, Inc., priority 2002, dated 2010).

What was measured:
[1] = tested on: mouse apolipoprotein B mRNA; test: Transgenic mice dosing study (Example 52): mouse apolipoprotein B mRNA in liver; type: in vivo; settings: for % Inhibition, mouse apolipoprotein B mRNA: liver, 12 weeks
Description: A long-term study of inhibition of human apolipoprotein B by ISIS 301012 in C57BL/6NTac-TgN(APOB100) mice (Taconic, Germantown, N.Y.) was conducted for a 3 month period. Mice were dosed intraperitoneally twice a week with 10 or 25 mg/kg ISIS 301012 (SEQ ID No: 247) for 12 weeks. Saline-injected animals served as controls. Each treatment group comprised 4 animals.
The study was terminated forty eight hours after the final injections in the eighth week of treatment, when animals were sacrificed and evaluated for target mRNA levels in liver, apolipoprotein B protein levels in liver and serum cholesterol and liver enzyme levels. In addition, the expression of endogenous mouse apolipoprotein B levels in liver was measured to evaluate any effects of ISIS 301012 on mouse apolipoprotein B mRNA expression.
Human and mouse apolipoprotein B mRNA levels in livers of animals treated for 12 weeks were measured by real-time PCR as described herein. Each result represents the average of data from 4 animals.

[2] = tested on: human apolipoprotein B protein (apolipoprotein B-100 and apolipoprotein B-48); test: Transgenic mice dosing study (Example 52): immunoblot of human apolipoprotein B protein in serum and liver; type: in vivo, human transgene in mouse
Description: Apolipoprotein B protein in serum was also assessed by immunoblot analysis using an antibody directed to human apolipoprotein B protein (US Biologicals, Swampscott, Mass.).

[3] = Long-term study in lean CD-1 mice (Example 63): serum lipids and indicators of toxicity (ALT, AST, histology, steatosis); type: in vivo, mouse; settings: one month
Description: In accordance with the present invention, the toxicity of ISIS 301012 (SEQ ID NO: 247) is investigated in a long-term, 3 month study in mice. Two-month old male and female CD-1 mice (Charles River Laboratories, Wilmington, Mass.) are dosed with 2, 5, 12.5, 25 or 50 mg/kg of ISIS 301012 twice per week for first week, and every 4 days thereafter. The mice are maintained on a standard rodent diet. Saline and control oligonucleotide animals serve as controls and are injected on the same schedule. Each treatment group contains 6 to 10 mice of each sex, and each treatment group is duplicated, one group for a 1 month study termination, the other for a 3 month study termination. After the 1 or 3 month treatment periods, the mice are sacrificed and evaluated for target expression in liver, lipid levels in serum and indicators of toxicity. Liver samples are procured, RNA is isolated and apolipoprotein B mRNA expression is measured by real-time PCR as described in other examples herein. Serum lipids, including total cholesterol, LDL-cholesterol, HDL-cholesterol and triglycerides, are evaluated by routine clinical analysis using an Olympus Clinical Analyzer (Olympus America Inc., Melville, N.Y.). Ratios of LDL-cholesterol to HDL-cholesterol and total cholesterol to HDL-cholesterol are also calculated. Analyses of serum ALT and AST, inflammatory infiltrates in tissue and basophilic granules in tissue provide an assessment of toxicities related to the treatment. Hepatic steatosis, or accumulation of lipids in the liver, is assessed by routine histological analysis with oil red 0 stain and measurement of liver tissue triglycerides using a Triglyceride GPO Assay (Sigma-Aldrich, St. Louis, Mo.).
The toxicity study also includes groups of animals allowed to recover following cessation of oligonucleotide treatment. Both male and female CD-1 mice (Charles River Laboratories, Wilmington, Mass.) are treated with 5, 10, 50 mg/kg of ISIS 301012 twice per week for the first week and every 4 days thereafter. Saline and, control oligonucleotide injected animals serve as controls. Each treatment group includes 6 animals per sex. After 3 months of treatment, animals remain untreated for an additional 3 months, after which they are sacrificed. The same parameters are evaluated as in the mice sacrificed immediately after 3 months of treatment.
Additionally, the expected dose-response toxicities were observed. ALT and AST levels, measured by routine clinical procedures on an Olympus Clinical Analyzer (Olympus America Inc., Melville, N.Y.), are increased in mice treated with 25 or 50 mg/kg of ISIS 301012. Tissues were prepared for analysis by routine histological procedures.

[4] = tested on: human apolipoprotein B protein; test: Apolipoprotein B protein in primary human hepatocytes, immunoblot; type: cell-based; settings: 50, 150 and 300 nM, 24 hours, 48 hours
Description: Protein samples from 50, 150 and 300 nM doses after 24 hours and 150 and 300 nM doses after 48 hours were subjected to immunoblot analysis as described by other examples herein, using a human apolipoprotein B protein specific antibody purchased from US Biological (Swampscott, Mass.).

apolipoprotein B protein = test: Apolipoprotein B protein in primary Cynomolgous monkey hepatocytes, immunoblot; type: cell-based
Description: Additionally, protein was isolated from oligonucleotide-treated primary Cynomolgous monkey hepatocytes and subjected to immunoblot analysis to further assess apolipoprotein B protein expression. Immunoblotting was performed as described herein, using an antibody to human apolipoprotein B protein (US Biologicals, Swampscott, Mass.).

apolipoprotein B mRNA = test: Lean mice, 6 weeks (Example 66): apolipoprotein B mRNA; type: in vivo, mouse
Description: The accumulation of lipids in liver tissue was also evaluated in lean mice. Male […] mice (Charles River Laboratories (Wilmington, Mass.) at 6 to 7 weeks of age were maintained on a standard rodent diet and were treated twice weekly with intraperitoneal injections of 25 or 50 mg/kg 147764 (SEQ ID NO: 109) or 147483 (SEQ ID NO: 79) for 6 weeks. Saline treated animals served as controls. Each treatment group was comprised of 4 animals. Animals were sacrificed after the 6 week treatment period, at which point liver tissue and serum were collected.
Apolipoprotein B mRNA levels were measured by real-time PCR as described by other examples herein. The data, shown in Table 51, represent the average of 4 animals and are presented as inhibition relative to saline treated controls.

[5] = tested on: mouse apolipoprotein B mRNA; test: High fat fed mice (Example 65): mouse apolipoprotein B mRNA and serum cholesterol levels; type: in vivo
Description: Male C57Bl/6 mice were divided into the following groups, consisting of 5 animals each: (1) mice on a lean diet, injected with saline (lean control); (2) mice on a high fat diet; (3) mice on a high fat diet injected with 50 mg/kg of the control oligonucleotide 141923 (SEQ ID NO: 858); (4) mice on a high fat diet given 20 mg/kg atorvastatin calcium (Lipitor®, Pfizer Inc.); (5) mice on a high fat diet injected with 10, 25 or 50 mg/kg ISIS 147764 (SEQ ID NO: 109). Saline and oligonucleotide treatments were administered intraperitoneally twice weekly for 6 weeks. Atorvastatin was administered daily for 6 weeks. At study termination, liver samples were isolated from each animal and RNA was isolated for Northern blot qualitative assessment, DNA microarray and quantitative real-time PCR. Northern blot assessment and quantitative real-time PCR were performed as described by other examples herein.
Mouse apolipoprotein B mRNA and serum cholesterol levels, measured as described herein, were evaluated to confirm antisense inhibition by ISIS 147764 and ISIS 147483. […] The 50 mg/kg dose of ISIS 147483 increased ALT and AST levels.

Substance	mouse liver apolipoprotein B mRNA ([1]; 12 weeks of treatment)	% Inhibition, mouse apolipoprotein B mRNA ([1]; 10 mg/kg i.p. twice a week) [%]	% Inhibition, mouse apolipoprotein B mRNA ([1]; 25 mg/kg i.p. twice a week) [%]	expression of human apolipoprotein B, B-100 and B-48 forms, in liver (immunoblot) [2]	human apolipoprotein B protein in serum, B-100 and B-48 forms (immunoblot) ([2]; 2, 4, 6 and 12 weeks of treatment)	ALT and AST levels ([3]; 25 or 50 mg/kg)	doses at which basophilic granules in liver and kidney tissue were observed [3]	doses at which mild lymphohistiocytic infiltrates were observed in various tissues [3]	steatosis (oil red O staining) [3]	apolipoprotein B protein in human hepatocytes (immunoblot) [4]	apolipoprotein B expression (immunoblot) (apolipoprotein B protein)	% Inhibition apolipoprotein B mRNA (apolipoprotein B mRNA; 25 mg/kg i.p. twice weekly) [%]	% Inhibition apolipoprotein B mRNA (apolipoprotein B mRNA; 50 mg/kg i.p. twice weekly) [%]	inhibition of apolipoprotein B mRNA expression (apolipoprotein B mRNA; 25 or 50 mg/kg i.p. twice weekly)	mouse apolipoprotein B mRNA and serum cholesterol levels [5]
ISIS 301012: SEQ ID NO: 247, antisense oligonucleotide targeted to human apolipoprotein B (antisense GCCTCAGTCTGCTTCGCACC; chemistry not given here)	unaffected	6	6	reduction	lowered	increased	above 12.5 mg/kg	above 12.5 mg/kg	no steatosis	reduced in a dose-dependent manner	substantial reduction				
GTCCCTGAAGATGTCAATGC (2'-MOE gapmer, further chemistry not given here) [ISIS 147764]												48	77	in a dose-dependent manner	lowered in a dose-dependent manner
